Experiments:
[1] = target: T1, α1a (bovine) adrenoreceptor (Bos taurus, UniProt P18130); assay: [3H]-prazosin radioligand binding, cloned α1a (bovine) adrenoreceptor in LTK cells; settings: cloned receptor in LTK cell membranes, [3H]prazosin 0.2 nM
T1 sequence (P18130 1-466): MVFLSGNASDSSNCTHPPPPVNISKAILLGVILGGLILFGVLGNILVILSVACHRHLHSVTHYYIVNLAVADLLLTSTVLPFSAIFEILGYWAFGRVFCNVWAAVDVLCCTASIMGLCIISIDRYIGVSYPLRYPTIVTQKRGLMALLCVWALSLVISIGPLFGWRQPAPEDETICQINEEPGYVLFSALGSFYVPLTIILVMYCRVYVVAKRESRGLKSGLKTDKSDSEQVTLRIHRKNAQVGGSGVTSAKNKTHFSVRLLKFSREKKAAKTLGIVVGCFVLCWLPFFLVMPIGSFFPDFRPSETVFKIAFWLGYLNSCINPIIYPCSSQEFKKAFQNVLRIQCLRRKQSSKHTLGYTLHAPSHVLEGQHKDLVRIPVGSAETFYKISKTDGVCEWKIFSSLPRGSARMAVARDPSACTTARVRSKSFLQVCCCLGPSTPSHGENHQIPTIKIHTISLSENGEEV
Method: Representative compounds of the invention were evaluated for α adrenoreceptor binding affinity in vitro using [^3H]-prazosin as the radioligand and following four cloned α1, adrenoreceptors expressed in LTK cells: α1a (rat), α1a (bovine), α1b : (hampster), and α1d (rat).
The cDNA clones encoding the α1, adrenoreceptors were obtained from TULCO (Triangle Universities Licensing Consortium, Research Triangle Park, N.C.) and inserted into the eukaryotic expression vector SnaB30. In this vector, expression of the adrenoreceptor gene is under the transcriptional control of an SV40 early promoter. Positive drug selection is provided by a neomycin-resistance gene. Mouse fibroblast cells (LTK) were transfected with the α1 expression plasmids and grown in Dulbecco's modified Eagle's medium (DMEM) containing 10% fetal calf serum and 30 μM G418. Stable G418-resistant parental lines were generated with successful expression of adrenoreceptor protein monitored using radioligand binding techniques. Stable single cell clones derived from the parental lines were screened in adrenoreceptor binding assays to identify clones having high adrenoreceptor density. Roller bottle cultures of the cloned lines were used to provide cell membranes for subsequent adrenoreceptor binding characterization studies. A cell line containing the SnaB30 vector expressing the human erythropoietin gene served as a negative control.
For adrenoreceptor binding assays, large scale membrane preparations were utilized in which 6 million cells were seeded into small (450 cm^2) Coming tissue culture roller bottles. DMEM (200 mL) containing 10% fetal calf serum and 300 μM G418 were added to each roller bottle. A 95% air/5% CO2 gas mixture (sterile) was injected into each roller bottle prior to sealing, and the bottles were then incubated at 37° C. on a roller rack for 5 days. Cells were refed with fresh medium after 3 days in culture.
On the fifth day of culture, growth medium was removed from cells grown in roller bottles, and the cells were washed twice with PBS (Sigma, 120 mM NaCl, 2.7 mM KCl, 10 mM Na2HPO4-NaH2PO4, pH=7.4). Cells were detached from the roller bottles by incubating for 15 minutes at 37° C. in a Tris-EDTA solution (10 mM Tris, 100 mM NaCl, 1 mM EDTA, pH=7.4). The cell suspension from each roller bottle was decanted into tared centrifuge tubes and kept on ice. An aliquot of each cell suspension was generally taken for cell counting. Cells were centrifuged at 3000×G for 5 minutes at 2-4° C., washed with PBS and recentrifuged. The supernatant was decanted, and the pellet was weighed to determine the wet weight of cells. Cells were washed a final time in 40 vol 5 mM Tris-HCl, 5 mM EDTA, pH=7.7 and centrifuged at 40,000×G for 10 minutes (“vol” indicates volume/weight, e.g., a “vol” of 40 would indicate that the one gram of cells were washed with 40 mls of buffer). Cells were homogenized in of 50 mM Tris-HCl, 5 mM EDTA (pH=7.4) (10 mL) and diluted to 40 mL/tube. Homogenates were centrifuged at 40,000×G for 10 minutes. The supernatant was decanted and the pellets rehomogenized in 50 mM Tris-HCl (pH=7.4) and centrifuged as before. The supernatant was decanted and the homogenate was resuspended in 6.25 volumes (per gram wet weight) of 50 mM Tris-HCl and aliquots of the pooled homogenates frozen in liquid N2 and,stored at −70° C. until the time of assay.
Receptor binding assays for α1 adrenoreceptors were performed essentially as described by Greengrass and Bremner (Eur. J. Pharmacol. 55: 323-326 (1979)). […] Following equilibration, bound radioligand was separated from free on GF/B filters (presoaked in 0.5% polyethyleneimine) using ither a Brandel or Packard cell harvester. Radioactivity was determined by standard liquid scintillation techniques. Data were analyzed as previously described (Hancock, A. A., Kyncl, J. J., Martin, Y. C. and DeBemardis, J. F., J. Receptor Res. 8: 23-46 (1988)). The in Table 1.

melting point | Ki [1] | SMILES
198 to 201 °C | 0.41 nM | COc1cccc2c1N1CCN(CCCCn3c(=O)[nH]c4c(sc5ncc(Cl)nc54)c3=O)CC1CO2.Cl.Cl (single isomer, unassigned; (-)) [Example 12, (−) 3-[4-(10-methoxy-1,2,4a,5-tetrahydropyrazino[2,1-c][1,4]benzoxazin-3(4H)-yl)butyl]-8-chloropyrazino[2′,3′:4,5]thieno[3,2-d]pyrimidine-2,4(1H,3H)-dione dihydrochloride]
280 to 282 °C | 0.685 nM | COc1cccc2c1N1CCN(CCn3c(=O)[nH]c4c(sc5ncc(Cl)nc54)c3=O)CC1CO2.Cl.Cl (single isomer, unassigned; (-)) [Example 13, (−) 3-[2-(10-methoxy-1,2,4a,5-tetrahydropyrazino[2,1-c][1,4]benzoxazin-3(4H)-yl)ethyl]-8-chloropyrazino[2′,3′:4,5]thieno[3,2-d]pyrimidine-2,4(1H,3H)-dione dihydrochloride]

Reference: US6376488B1, “Benzoxazine α-1 adrenergic compounds” (Abbott Laboratories, priority 2000, dated 2002)
